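Method: 48-hour compound exposure of cells in 96-well plates, five concentrations, linear interpolation of endpoints. The concentration for full growth arrest is given as TGI.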
Experiments:
Test in all cases: growth of human tumour cells (NCI), 48 h
[1] = tested on: RXF 393 renal
[2] = tested on: COLO 205 colon
[3] = tested on: SN12C renal
[4] = tested on: SF-295 CNS
[5] = tested on: M14 melanoma
[6] = tested on: T-47D breast
[7] = tested on: PC-3 prostate
[8] = tested on: MDA-MB-231 breast
[9] = tested on: MDA-N
[10] = tested on: UO-31 renal
[11] = tested on: MCF7 breast
[12] = tested on: TK-10 renal
[13] = tested on: NCI-H23 lung
[14] = tested on: U251 CNS

Row | SMILES | TGI [1] | TGI [2] | TGI [3] | TGI [4] | TGI [5] | TGI [6] | TGI [7] | TGI [8] | TGI [9] | TGI [10] | TGI [11] | TGI [12] | TGI [13] | TGI [14]
1 | O=C(c1ccccc1)n1cc(-c2ccccc2)c2c(=O)[nH]cnc21 | > 100 µM | > 100 µM | > 100 µM | > 100 µM | > 100 µM | > 100 µM | > 100 µM | > 100 µM | > 100 µM | > 100 µM | > 100 µM | > 100 µM | > 100 µM | > 100 µM
2 | O=C(CCCCCCCCC(=O)N1C(=O)CC(=O)N(c2ccccc2)C1=S)N1C(=O)CC(=O)N(c2ccccc2)C1=S | > 100 µM | > 100 µM | > 100 µM | > 100 µM | > 100 µM | > 100 µM | > 100 µM | > 100 µM | > 100 µM | > 100 µM | > 100 µM | > 100 µM | > 100 µM | > 100 µM
3 | CCCCCc1nnc(NS(=O)(=O)c2ccc(NC(=O)OCC(C)C)cc2)s1 | > 100 µM | 41.6 µM | > 100 µM | > 100 µM | > 100 µM | > 100 µM | > 100 µM | > 100 µM | > 100 µM | > 100 µM | > 100 µM | > 100 µM | > 100 µM | > 100 µM
4 | Cc1ccc(NC(=O)C(Cc2c[nH]c3ccccc23)NC(=O)Oc2ccccc2)cc1C (centres undefined) | > 100 µM | > 100 µM | > 100 µM | > 100 µM | > 100 µM | > 100 µM | > 100 µM | > 100 µM | > 100 µM | > 100 µM | > 100 µM | 25.5 µM | > 100 µM | > 100 µM
5 | C=C1c2nc3ccccc3n2C=C(c2ccc(C)cc2)N1c1ccc(C)cc1 | > 96.6 µM | > 89.3 µM | > 100 µM | > 100 µM | > 100 µM | > 100 µM | > 100 µM | > 100 µM | > 92.3 µM | > 100 µM | > 100 µM | > 100 µM | > 100 µM | > 100 µM
6 | Cc1ccc2c(=O)c(C(=O)Nn3c(C)csc3=S)c[nH]c2n1 | > 100 µM | > 100 µM | > 100 µM | > 100 µM | > 100 µM | > 100 µM | > 100 µM | > 100 µM | > 100 µM | > 100 µM | > 100 µM | > 100 µM | > 100 µM | > 100 µM
7 | C=CCc1cc(-c2cc(CC=C)c(O)c(CN(CC)CC)c2)cc(CN(CC)CC)c1O | 52 µM | > 82.2 µM | > 100 µM | > 88 µM | 23.4 µM | > 100 µM | > 100 µM | > 87.7 µM | > 73.5 µM | 44.3 µM | > 100 µM | > 100 µM | > 100 µM | > 100 µM
8 | COc1cc2oc(=O)cc(C)c2cc1O | > 100 µM | > 100 µM | > 100 µM | > 100 µM | > 100 µM | > 100 µM | > 100 µM | > 100 µM | > 100 µM | > 100 µM | > 100 µM | > 100 µM | > 100 µM | > 100 µM
9 | O=C(CCCCCC(=O)N1CC(CCl)c2ccc([N+](=O)[O-])cc21)N1CC(CCl)c2ccc([N+](=O)[O-])cc21 (centres undefined) | > 100 µM | > 100 µM | > 100 µM | > 100 µM | > 100 µM | > 100 µM | > 100 µM | > 100 µM | > 100 µM | > 100 µM | > 100 µM | > 100 µM | > 100 µM | > 100 µM
10 | CCO[C@@]1(COCc2ccccc2)OC(=O)C[C@@H]1N1C(=O)OC[C@@H]1c1ccccc1 | > 100 µM | > 100 µM | > 100 µM | > 100 µM | > 100 µM | > 100 µM | > 100 µM | > 100 µM | > 100 µM | > 100 µM | > 100 µM | > 100 µM | > 100 µM | > 100 µM
11 | COc1ccc(NC(=O)CC(=O)n2nc(C)c(N=Nc3cccc(C)c3)c2C)cc1 | > 100 µM | > 100 µM | > 100 µM | > 100 µM | > 100 µM | > 100 µM | > 100 µM | > 100 µM | > 100 µM | > 100 µM | > 100 µM | > 100 µM | > 100 µM | > 100 µM
